According to patent US20250289808A1 (BenoBio Co., Ltd, priority 2024, published 2025):

Key:
[1] = target: T1, BRD2 (BD1) (Homo sapiens, UniProt P25440); experiment: Binding inhibitory effect on BRD2 protein (AlphaScreen, acetyl-histone H4 peptide); conditions: GST-BRD2 (BD1) 100 nM, biotinylated acetyl-histone H4 peptide 100 nM
T1 construct: a bromodomain of BRD2 (BD1) and BRD3 (BD1), one of the BET protein family

[2] = test system: macular degeneration animal model; experiment: Laser-induced macular degeneration mouse model, FFA and OCT imaging; assay type: in vivo; conditions: day 11, compound 0.022 μg/eye, Eylea 20 μg/eye
Experimental: After the mouse was subjected to general anesthesia, the eye was applied with anesthetic eye drops to be subjected to additional local anesthesia and additionally induce mydriasis. A macular degeneration animal model was prepared by destroying the Bruch's membrane by inducing laser burn according to macular degeneration induction conditions. […] On day 11 of macular degeneration induction, the mice were subjected to general anesthesia and then injected intraperitoneally with a fluorescent contrast agent. The mouse was placed on the sacrifice table, lubricating gel was dropped into the corresponding eye, and an OCT lens was brought into contact with the mouse's cornea. Image analysis for fluorescein fundus angiography (FFA) and OCT was performed using the Image-J program.

[3] = test system: retinal degeneration mouse model; experiment: Electroretinogram (ERG) in blue LED-induced retinal degeneration mouse model; assay type: in vivo, BALB/c mice; conditions: compound 24 nM, Eylea 25 mg/kg; for Wavelength enhanced multiple compared to a normal saline-treated group, Average value: average of a-wave and b-wave; for Wavelength enhanced multiple compared to a normal saline-treated group, a-wave / Wavelength enhanced multiple compared to a normal saline-treated group, b-wave: single intravitreal injection 1 hour after LED exposure
[4] = target: T2, BRD3 (BD1) (Homo sapiens, UniProt Q15059); experiment: Binding inhibitory effect on BRD3 protein (AlphaScreen, same manner as 1-1); conditions: same manner as Experimental Example 1-1
T2 construct: a bromodomain of BRD2 (BD1) and BRD3 (BD1), one of the BET protein family; GST
T2 sequence (Q15059 34-140 limits assumed): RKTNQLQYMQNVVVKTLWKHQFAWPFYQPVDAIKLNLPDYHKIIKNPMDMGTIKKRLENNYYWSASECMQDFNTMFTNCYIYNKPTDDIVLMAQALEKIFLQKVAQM

T1 sequence (P25440 74-180 limits assumed): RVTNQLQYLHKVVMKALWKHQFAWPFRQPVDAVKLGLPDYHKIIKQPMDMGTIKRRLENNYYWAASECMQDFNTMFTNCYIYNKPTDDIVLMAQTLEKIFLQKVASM

SMILES | IC50 [1] [µM] | CTF value ([2]; FFA imaging) | Lesion size compared to negative control group ([2]; FFA imaging) [%] | Lesion size compared to negative control group ([2]; OCT imaging) [%] | Volume of lesion ([2]; OCT imaging) | Wavelength enhanced multiple compared to a normal saline-treated group, Average value [3] | Wavelength enhanced multiple compared to a normal saline-treated group, a-wave [3] | Wavelength enhanced multiple compared to a normal saline-treated group, b-wave [3] | IC50 [4] [µM]
CC(C)NCc1ccc(-c2ccccc2-c2cccc3c2CN(C)C3=O)o1 [Compound 8, 2-methyl-4-(2-(5-((isopropylamino)methyl)furan-2-yl)phenyl)isoindoline-1-one] | 16.6 |  |  |  |  |  |  |  | 
CN1Cc2c(cccc2-c2ccccc2-c2ccc(CN3CCOCC3)o2)C1=O [Compound 13, 2-methyl-4-(2-(5-(morpholinomethyl)furan-2-yl)phenyl)isoindoline-1-one] |  | 321,816 Pixels | 34.96 | 57.66 | 1,256,002 μm^3 | 1.33 | 1.29 | 1.36 | 
CN1Cc2c(cccc2-c2ccccc2-c2ccc(CNCc3cnn(C)c3)o2)C1=O [Compound 18, 2-methyl-4-(2-(5-((((1-methyl-1H-pyrazole-4yl)methyl)amino)methyl)furan-2-yl)phenyl)isoindoline-1-one] |  | 389,222 Pixels | 42.28 | 45.15 | 983,477 μm^3 | 2.04 | 2.05 | 2.03 | 
CNC(=O)C1(Cc2ccc(F)cc2)CCN(Cc2ccc(-c3ccccc3-c3cccc4c3CN(C)C4=O)o2)CC1 [Compound 21, 2-methyl-4-(2-(5-(((4-(4-fluorobenzyl)-4′-carboxamidyl)piperidine)methyl)furan-2-yl)phenyl)isoindoline-1-one] |  | 251,239 Pixels | 27.29 | 40.79 | 888,502 μm^3 | 2.30 | 2.17 | 2.42 | 
CNC(=O)C1(C)CN(Cc2ccc(-c3ccccc3-c3cccc4c3CN(C)C4=O)o2)CCC1O (stereo not shown) [Compound 25] |  | 300,650 Pixels | 32.66 | 44.01 | 958,694 μm^3 | 1.27 | 1.52 | 1.01 | 
CNC(=O)C1(Cc2ccccc2)CCCN(Cc2ccc(-c3ccccc3-c3cccc4c3CN(C)C4=O)o2)C1 (stereo not shown) [Compound 27] | 14.1 |  |  |  |  |  |  |  | 2.54
CNC(=O)CC1C(=O)NCCN1C(=O)c1ccc(-c2ccccc2-c2cccc3c2CN(C)C3=O)o1 (stereo not shown) [Compound 35] | 12.3 |  |  |  |  |  |  |  | 1.22
CN1Cc2c(cccc2-c2ccccc2-c2ccc(COCN3CCC(F)(F)CC3)o2)C1=O [Compound 37, 2-methyl-4-(2-(5-((((4,4-difluoropiperidine-1-yl)methoxy)-3-carboxamidyl)methyl)furan-2-yl)phenyl)isoindoline-1-one] |  | 320,028 Pixels | 34.76 | 46.40 | 1,010,752 μm^3 | 1.38 | 1.45 | 1.31 | 
CNC(=O)C1(Cc2ccc(F)cc2)CCN(Cc2oc(-c3ccccc3-c3cccc4c3CN(C)C4=O)cc2C)CC1 [Compound 39, 2-methyl-4-(2-(5-((3-methyl (4-(4-fluorobenzyl)-4′-carboxamidyl)piperidine)methyl)furan-2-yl)phenyl)isoindoline-1-one] |  | 252,108 Pixels | 27.38 | 58.10 | 1,265,636 μm^3 | 1.36 | 1.21 | 1.51 | 
CCC1(C(=O)NC)CCCN(Cc2oc(-c3ccccc3-c3cccc4c3CN(C)C4=O)cc2C)C1 (stereo not shown) [Compound 40] |  | 362,456 Pixels | 39.37 | 54.01 | 1,176,522 μm^3 | 1.30 | 1.16 | 1.43 | 
CNC(=O)CC1C(=O)NCCN1Cc1oc(-c2ccccc2-c2cccc3c2CN(C)C3=O)cc1C (stereo not shown) [Compound 42, 2-methyl-4-(2-(5-(3-methyl(N-methyl-2-(3-oxopiperazine-2yl)acetamidyl)methyl)furan-2-yl)phenyl)isoindoline-1-one] |  | 381,846 Pixels | 41.48 | 52.86 | 1,151,561 μm^3 | 1.32 | 1.25 | 1.38 | 
